Data set [1] in a line: General observations (body weight, litter size, serum testosterone, other tissues). Format: in vivo, rat. The method, then:
In Vivo Procedures: Gestating outbred Sprague-Dawley and inbred Fisher mother rats from timed, pregnant colonies housed at the Washington State University Vivarium, were given intraperitoneal injections of vinclozolin (100 mg/kg/day) and methoxychlor (200 mg/kg/day) from embryonic day 8-15 (E8-E15, sperm positive vaginal smear date=E0) of gestation (F0 generation) as previously described. Gestating mothers administered vehicle, sesame oil or DMSO, served as controls. At least 6 lines (individual F0 injected females) were generated for controls and treated groups for these analyses. Male rats from control and treated groups were collected at P60-P180 for analyses. F1 treated males were bred to F1 treated females to generate the F2 treated generation and F2 treated males were bred to F2 treated females to generate the F3 generation and the F3 were bred in the same manner to generate the F4 generation. Rats for the control groups were bred in the same manner for all the generations. No inbreeding or sibling crosses were generated. The outcross group (VOC) were generated by breeding the F2 treated males with wild-type females (total of 6 litters) and reverse outcross group (RVOC) was generated by breeding F2 treated females with wild-type males (total of 3 litters). Control (n=4) and treated (n=4) male offspring from the F1 generation from Fisher strain rats were collected at P6 for DNA methylation analysis, see below. All procedures have been approved by the Washington State University Animal Care Committee. The number of animals used for replicates in the experiments (i.e. n value) are as follows for vinclozolin treatment: F1 (control 11, treated 12); F2 (control 19, treated 30); F3 (control 19, treated 26); F4 (control 10, treated 17); VOC (18); and RVOC (6). For methoxychlor treatment animal number was for F1 (control 6, treated 9) and F2 (control 16, treated 22).

Data set [2] has as its system F1 generation testis. As to conditions: cited from earlier work.

Take `COc1ccc(C(c2ccc(OC)cc2)C(Cl)(Cl)Cl)cc1` [methoxychlor]: in data set [1] (all the animals), the serum testosterone levels result is “normal”. Besides, the “effect on total body weight” value in data set [1] (endocrine disruptor treatment, F1) is reported as “no effect”. Further, in data set [1] (rat, in vivo), the “gross abnormality in any other tissues examined” value is given as “No gross abnormality”. Further, the “adult F1 generation testis phenotype” value in data set [2] (gestating mother exposed E8-E15, 100 or 200 mg/kg i.p. daily) is “reduced spermatogenic capacity, increased spermatogenic cell apoptosis and decreased sperm number and motility”. Besides, the “effect on the F1 generation testis” value in data set [2] (transient exposure E15-E20) is recorded as “no effect”.

The record behind these values is patent publication US8586307B2, “Methods for diagnosing epigenetic, transgenerational effects of environmental toxicants on mammalian germ-lines and treating associated diseases” (priority 2005, dated 2013).
